Measured values from patent publication US10774039B2, “Cyclopropene amino acids and methods” (United Kingdom Research and Innovation, priority 2014, dated 2020).

Target: PylRS/tRNACUA pair (Methanosarcina mazei, UniProt Q8PWY1)
Assay: Dual luciferase reporter assay on ovary extract of flies fed amino acid
Format: in vivo, D. melanogaster
Parameters: expressed in transfected cells; host or cells: transgenic Drosophila melanogaster, ovaries (UAS-PylRS driven by nos-vp16-GAL4)
Details: flies fed 10 mM amino acid
Experimental: Dual luciferase assay on ovary extract from 10 female flies expressing Triple-Rep-L in the presence or absence of 10 mM 1 or 10 mM 3. […] The error bars represent the standard deviation of 3 technical replicates from a single biological replicate. FIG. 10B: Site-specific incorporation of 3 (or 1) into GFP_TAG_mCherry-HA in flies expressing PylRS/PyltRNACUA. The full-length protein resulting from unnatural amino acid incorporation is detected by anti-HA western blot. FIG. 10C: Specific labelling of encoded 3 with tetrazine probes. Flies were fed with no amino acid, amino acid 1 (500 flies) or amino acid 3 (100 flies). […] The full-length protein containing the unnatural amino acid was immunoprecipitated from lysed ovaries with anti-GFP beads. The beads were labelled (4g, 4 μM, 200 μL, PBS, RT, 2 h) washed.
Transgenic lines were created by P element insertion using a Drosophila embryo injection service (BestGene Inc.). Lines were generated using the following plasmids: pFT58 (Ala), pFT60 (Ser), pFT62 (Leu) and pFT63 (Met). nos-Gal4-VP16 (Bloomington 4937) and MS1096-Gal4 (Bloomington 8860) were used as Gal4 drivers. All flies were grown at 25° C. on standard Iberian medium. Flies were fed unnatural amino acids by mixing dried yeast with the appropriate concentration of amino acid (usually 10 mM) diluted in dH2O to make a paste. Ovaries were prepared from females that were grown on Iberian fly food supplemented with a yeast paste with or without the amino acid for a minimum of 48 hours. For proteome labelling experiments transgenic male flies of constructs FT58, FT60, FT62 and FT63 were crossed with nos-vp16-GAL4 virgins to generate FT58/nos-vp16-GAL4, FT60/nos-vp16-GAL4, FT62/nos-vp16-GAL4 and FT63/nos-vp16-GAL4 respectively.
Ovaries from 10 females of Triple Rep-L flies recombined with nos-Gal4-VP16 fed 3, 1 or no amino acid were dissected in 100 μl 1× Passive lysis buffer and processed for luciferase assays as previously described^20.

Sequence of PylRS/tRNACUA pair (Q8PWY1 whole entry): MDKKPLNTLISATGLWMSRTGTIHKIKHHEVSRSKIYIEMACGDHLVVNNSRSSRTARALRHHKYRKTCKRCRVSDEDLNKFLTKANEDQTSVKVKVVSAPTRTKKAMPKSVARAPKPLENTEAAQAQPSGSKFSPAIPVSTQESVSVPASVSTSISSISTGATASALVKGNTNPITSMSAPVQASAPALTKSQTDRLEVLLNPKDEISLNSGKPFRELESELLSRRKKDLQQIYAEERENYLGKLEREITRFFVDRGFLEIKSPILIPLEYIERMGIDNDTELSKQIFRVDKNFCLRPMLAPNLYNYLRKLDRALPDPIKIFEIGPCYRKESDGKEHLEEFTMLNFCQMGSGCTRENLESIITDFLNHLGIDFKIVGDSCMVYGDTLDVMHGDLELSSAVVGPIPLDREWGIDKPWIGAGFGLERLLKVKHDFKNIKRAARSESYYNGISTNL

With CC1=CC1COC(=O)NCCCC[C@H](N)C(=O)O (stereo partly drawn) [amino acid 3, N^ε-[((2-methylcycloprop-2-en-1-yl)methoxy)carbonyl]-L-lysine] the “dual luciferase signal compared with 1” value was “larger” and the “luciferase signal dependent on amino acid addition” value was “strong luciferase signal”.
